Data taken from patent publication US5064862A, “Anticonvulsant method and formulations” (priority 1990, dated 1991).
Where “and” joins values, the source holds several entries; their conditions need not be identical. Equal entries are not always repeated. Entries after “also recorded” stand apart in the source; their conditions may differ. Where two headings read alike, the source gives them in different places.

Legend:
[1] = tested on: maximal electroshock seizures (MES);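 on animals with anti-MES activity at 5 mg/kg: seizures induced by corneal electroshock, 60-cycle alternating current at 50 mA for 0.2 s, protection means no hind limb tonic extension, scored right after the shock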;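 on safety ratio (SR=TD3/ED97), MES test: seizures induced by corneal electroshock, 60-cycle alternating current at 50 mA for 0.2 s, protection means no hind limb tonic extension, scored right after the shock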
Protocol: The preliminary screening was done at doses of the test compounds from 30 mg/kg up to 600 mg/kg adminstered ip in mice and evaluated against maximal electroshock seizures (MES) and subcutaneous Metrazole (scMet) induced convulsions and in the rotorod test for neurologic deficit.
(§1) All tests were performed using male Carworth Farms number-one mice. Test solutions of all compounds were prepared in 30% polyethylene glycol 400 and animals were dosed intraperitoneally (ip) at 30 minutes prior to testing.
Maximal electroshock seizures (MES) were elicited with a 60 cycle alternating current of 50 mA intensity delivered for 0.2 second via corneal electrodes. A drop of 0.9% saline was instilled in the eye prior to application of electrodes. The animals were examined and evaluated immediately after the electroshock for the occurrence of clonic, flexor tonic, or extensor tonic convulsions or death. Abolition of the hind limb tonic extension component of the seizure was defined as protection in the MES test. The ED50 was determined for the test compound as the dose which inhibited the occurrence of hind limb tonic convulsions in one half of the animals immediately after the electroshock as determined by graphical interpolation.
(§2) Neurological deficit was measured in mice using the rotorod test. The dosed animal was placed on a 1-inch diameter knurled plastic rod rotating at 6 rpm. Neurologic toxicity was defined as the failure of the animal to remain on the rod for 1 minute. The median anticonvulsant protency (ED50) and toxicity (TD50) were determined by the graphical method.

[2] = tested on: maximal electroshock seizures (MES); conditions: cited from earlier work;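 on animals with anti-MES activity at 5 mg/kg: seizures induced by corneal electroshock, 60-cycle alternating current at 50 mA for 0.2 s, protection means no hind limb tonic extension, scored right after the shock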;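 on safety ratio (SR=TD3/ED97), MES test: seizures induced by corneal electroshock, 60-cycle alternating current at 50 mA for 0.2 s, protection means no hind limb tonic extension, scored right after the shock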
[3] = tested on: subcutaneous Metrazole (scMet) induced convulsions; conditions: cited from earlier work
[4] = tested on: subcutaneous Metrazole (scMet) induced convulsions; experiment: Subcutaneous pentylenetetrazole (Metrazol) seizure threshold test (scMet) in mice, ip; conditions: for minimal effective dose / ED50: Mus musculus; for ED50: read-out: scMET ED50
Protocol: Protection in this test was defined as a failure to observe a single episode of clonic spasms of at least 5 second duration during a 30 minute period following adminstration of the test compound.

[5] = tested on: convulsions induced by sc bicuculline; experiment: sc bicuculline induced seizures in mice; format: in vivo; conditions: doses up to 30 mg/kg
[6] = tested on: convulsions induced by sc picrotoxin; experiment: sc picrotoxin induced seizures in mice; format: in vivo; conditions: doses up to 30 mg/kg
[7] = tested on: convulsions induced by sc strychnine; experiment: sc strychnine induced seizures in mice; format: in vivo; conditions: doses up to 30 mg/kg
[8] = tested on: neurologic deficit (rotorod); conditions: mouse, in vivo
Protocol: as §1, §2

[9] = in vivo; conditions: mouse, ip
Protocol: as §1

[10] = tested on: neurologic deficit (rotorod); experiment: Rotorod test for neurologic deficit in mice, ip
Protocol: as §1, §2

[11] = in vivo; conditions: mouse, ip; remark: listed apart in the source
Protocol: as §1, §2

[12] = man; cited from earlier work
[13] = ip, 0.5 h, read-out: scMet activity, 30 min
[14] = ip, 4 h, read-out: scMet activity, 4 hrs
[15] = previous studies by Clark et al.

In the case of `CC(NC(=O)c1ccc(N)cc1)c1ccccc1` (stereo not drawn) [Compound 14], the “safety ratio (SR=TD3/ED97), MES test” value ([1]; mouse, in vivo, ip) is listed as 3.5, the “lethal dose (LD50)” value (ip, mice) is listed as 718.18 mg/kg and the “MES ED50” value ([2]; Clark et al, ip, mice) is listed as 18.02 mg/kg. The “MES PI (TD50/ED50)” value ([2]; Clark et al, ip, mice) was 9.50, the “scMET ED50” value ([3]; Clark et al, ip, mice) was 41.78 mg/kg and the “scMET PI (TD50/ED50)” value ([3]; Clark et al, ip, mice) was 4.10.
In the case of `Cc1cccc(C)c1NC(=O)c1ccc(N)cc1` [Example 1, 4-Amino-N-(2,6-dimethylphenyl) benzamide], the “anti-scMet activity (in words), 30 min” value ([4]; 30 minutes, ip, mice) is reported as “No anti-scMet activity”, the “anti-scMet activity (in words), 4 hours” value ([4]; 4 hours, ip, mice) is reported as “No anti-scMet activity” and the minimal effective dose [4, 13] is reported as greater than 300 mg/kg. For the same molecule, the minimal effective dose [4, 14] was greater than 300 mg/kg, the “effect against convulsions induced by sc metrazole” value ([4]; doses up to 30 mg/kg, mice) was “ineffective” and the “anti-scMet activity (in words)” value ([4]; ip, mice) was “absent”. The “effect against convulsions induced by sc bicuculline” value [5] was “ineffective”, the “effect against convulsions induced by sc picrotoxin” value [6] was “ineffective” and the “effect against convulsions induced by sc strychnine” value [7] was “ineffective”. For the same molecule, the “animals with anti-MES activity at 5 mg/kg” value ([1]; 5 mg/kg, 30 minutes, ip) was 4 of 4, the “animals with anti-MES activity at 30 mg/kg” value ([1]; ip, mice) was “all aminals” and the “anti-MES activity, active dose, 4 hours” value ([1]; 4 hours after ip administration, mice) was 30 mg/kg. The “MES ED50” value ([1]; ip, mice) was 2.60 mg/kg and 2.6 mg/kg, the “anti-MES / anticonvulsant activity (in words)” value ([1]; ip, mice) was “good anti-MES activity; also recorded: most potent amide of PABA observed thus far; also recorded: greater potency than any of the prototype anticonvulsant” and the “increase in anti-MES activity over compound 14” value ([1]; mice) was roughly 10 fold. For the same molecule, the “time of peak effect for anti-MES activity” value ([1]; mice) was 30 min, the “PI values (in words)” value ([1]; mouse, in vivo, ip) was “higher PI values” and the “animals with rotorod toxicity at 20 mg/kg” value [8] was 3 of 4. The “animals with rotorod toxicity at 30 mg/kg” value [8] was “all aminals”, the “increase in toxicity over compound 14” value [8] was roughly 10 fold and the “time of peak effect for toxicity” value [8] was 30 min. For the same molecule, the “rotorod toxicity, dose, 30 min” value ([8]; ip, 30 min) was 30 mg/kg, the “rotorod toxicity, dose, 4 hours” value ([8]; ip, 240 min) was 100 mg/kg and the “additional toxicity at higher doses” value (2×TD50 and 4×TD50, ip, mice) was “muscle relaxation, loss of righting reflex, decreased respiration with cyanosis and ptosis”. For the same molecule, the “toxicity induced by the TD50 dose” value (TD50 dose, ip, mice) was “decreased motor activity, spasticity, ataxia, rotorod toxicity and sedation”, the “time after which all symptoms had disappeared” value (mouse, in vivo, ip) was no more than 2 h and the LD50 [9] was 161 mg/kg. The TD50 [9] was 43.8 mg/kg and the “toxicity (in words)” value [10] was “most toxic”.
With `Nc1ccc(C(=O)Nc2ccccc2)cc1` [Example 2] the minimal effective dose [4, 13] was 100 mg/kg, the minimal effective dose [4, 14] was greater than 600 mg/kg and the “scMET PI (protective index = TD50/ED50)” value ([4]; ip, mice) was 1.88. For the same molecule, the “MES PI (protective index = TD50/ED50)” value ([1]; mouse, in vivo, ip) was 2.20, the “activity against MES induced convulsions (dose range)” value [2, 15] was roughly 50 mg/kg and the “activity against scMet induced convulsions (dose range)” value [3, 15] was roughly 50 mg/kg.
For `Cc1ccccc1NC(=O)c1ccc(N)cc1` [Example 3, 4-amino-N-(2-methylphenyl) benzamide], the minimal effective dose [4, 13] was greater than 300 mg/kg, the minimal effective dose [4, 14] was greater than 300 mg/kg and the LD50 [9] was less than 600 mg/kg.
Work on `Cc1cccc(NC(=O)c2ccc(N)cc2)c1` [Example 4] yielded a minimal effective dose [4, 13] of 300 mg/kg, a minimal effective dose [4, 14] greater than 600 mg/kg and an ED50 ([4]; ip) of 87.9 mg/kg. For the same molecule, the “scMET PI (protective index = TD50/ED50)” value ([4]; ip, mice) was 1.62, the “MES ED50” value ([1]; ip, mice) was 46.96 mg/kg and the “difference between the dosages producing toxicity and anti-MES activity” value ([1]; ip, mice) was “appreciable difference between the dosages producing toxicity and anti-MES activity”. The “MES PI (protective index = TD50/ED50)” value ([1]; mouse, in vivo, ip) was 3.03 and the TD50 ([8]; ip) was 142.51 mg/kg.
With `Cc1ccc(NC(=O)c2ccc(N)cc2)cc1` [Example 5, 4-amino-N-(4-methylphenyl) benzamide] the minimal effective dose [4, 13] was 30 mg/kg and the minimal effective dose [4, 14] was greater than 600 mg/kg.
In the case of `Cc1cccc(NC(=O)c2ccc(N)cc2)c1C` [Example 6], the minimal effective dose [4, 13] is reported as 100 mg/kg, the minimal effective dose [4, 14] is reported as greater than 300 mg/kg and the “animals with anti-MES activity at 30 mg/kg” value ([1]; ip, mice) is reported as “approximately half the animals”. For the same molecule, the “MES ED50” value ([1]; ip, mice) was 25.25 mg/kg, the “PI values (in words)” value ([1]; ip, mice) was “higher PI values” and the “anti-MES / anticonvulsant activity (in words)” value ([1]; ip, mice) was “good anti-MES activity”. For the same molecule, the “MES PI (protective index = TD50/ED50)” value ([1]; mouse, in vivo, ip) was 4.11, the TD50 ([8]; ip) was 103.90 mg/kg and the LD50 [9] was less than 600 mg/kg.
For `Cc1ccc(NC(=O)c2ccc(N)cc2)c(C)c1` [Example 7], the minimal effective dose [4, 13] was 600 mg/kg, the minimal effective dose [4, 14] was greater than 600 mg/kg and the “anti-MES / anticonvulsant activity (in words)” value ([1]; ip, mice) was “good anti-MES activity”.
In the case of `Cc1ccc(C)c(NC(=O)c2ccc(N)cc2)c1` [Example 8], the minimal effective dose [4, 13] is reported as 300 mg/kg, the minimal effective dose [4, 14] is reported as greater than 600 mg/kg and the “anti-MES / anticonvulsant activity (in words)” value ([1]; ip, mice) is reported as “good anti-MES activity”.
Molecule `Cc1ccc(NC(=O)c2ccc(N)cc2)cc1C` [Example 9] has a minimal effective dose [4, 13] of 300 mg/kg, a minimal effective dose [4, 14] of 300 mg/kg and an ED50 ([4]; ip) of 80.8 mg/kg. The “MES ED50” value ([1]; ip, mice) was 42.31 mg/kg, the “PI values (in words)” value ([1]; ip, mice) was “higher PI values” and the “anti-MES / anticonvulsant activity (in words)” value ([1]; ip, mice) was “good anti-MES activity”. The “MES PI (protective index = TD50/ED50)” value ([1]; mouse, in vivo, ip) was 4.59 and the TD50 ([8]; ip) was 194.14 mg/kg.
With `Cc1cc(C)cc(NC(=O)c2ccc(N)cc2)c1` [Example 10] the minimal effective dose [4, 13] was greater than 600 mg/kg, the minimal effective dose [4, 14] was greater than 600 mg/kg and the “anti-MES / anticonvulsant activity (in words)” value ([1]; ip, mice) was “good anti-MES activity”.
In the case of `CC(C)c1ccccc1NC(=O)c1ccc(N)cc1` [Example 11], the minimal effective dose [4, 13] is reported as 600 mg/kg, the “MES ED50” value ([1]; ip, mice) is reported as 81.52 mg/kg and the “PI values (in words)” value ([1]; ip, mice) is reported as “highest PI values”. The “MES PI (protective index = TD50/ED50)” value ([1]; mouse, in vivo, ip) was 8.70 and the TD50 ([8]; ip) was 708.98 mg/kg.
In the case of `Cc1cccc(C(C)C)c1NC(=O)c1ccc(N)cc1` [Example 12], the minimal effective dose [4, 13] is reported as greater than 600 mg/kg, the minimal effective dose [4, 14] is reported as greater than 600 mg/kg and the “MES ED50” value ([1]; ip, mice) is reported as 86.13 mg/kg. For the same molecule, the “PI values (in words)” value ([1]; ip, mice) was “highest PI values”, the “anti-MES / anticonvulsant activity (in words)” value ([1]; ip, mice) was “more potent” and the “MES PI (protective index = TD50/ED50)” value ([1]; mouse, in vivo, ip) was greater than 17.42. The “rotorod toxicity at 600 mg/kg” value [8] was “no rotorod toxicity”, the TD50 ([8]; ip) was greater than 1500.0 mg/kg and the TD50 [11] was 1500 to 2000 mg/kg.
For `CCc1cccc(C(C)C)c1NC(=O)c1ccc(N)cc1` [Example 13], the minimal effective dose [4, 13] was 300 mg/kg, the minimal effective dose [4, 14] was greater than 600 mg/kg and the “MES ED50” value ([1]; ip, mice) was 16.67 mg/kg. For the same molecule, the “anti-MES / anticonvulsant activity (in words)” value ([1]; ip, mice) was “more potent”, the “MES PI (protective index = TD50/ED50)” value ([1]; mouse, in vivo, ip) was 2.95 and the TD50 ([8]; ip) was 49.10 mg/kg. For the same molecule, the LD50 [9] was less than 600 mg/kg and the “animals with rotorod toxicity at 30 mg/kg” value ([10]; 30 mg/kg) was 1 out of 4.
In the case of `Cc1cccc(C)c1NC(=O)c1cccc(N)c1` [II-1, 3-amino-N-(2,6-dimethylphenyl) benzamide], the “MES ED50” value ([1]; ip, mice) is reported as 13.48 mg/kg, the “MES PI (protective index = TD50/ED50)” value ([1]; mouse, in vivo, ip) is reported as 21.11 and the TD50 [11] is reported as 285 mg/kg.
In the case of `CCC1(c2ccccc2)C(=O)NC(=O)NC1=O` [Phenobarbital, reference compound], the ED50 ([4]; ip) is reported as 13.2 mg/kg, the “MES ED50” value ([1]; ip, mice) is reported as 21.78 mg/kg and the “lethal dose (LD50)” value (ip, mice) is reported as 264.70 mg/kg.
In the case of `O=C1NC(=O)C(c2ccccc2)(c2ccccc2)N1` [Phenytoin], the “plasma level at which ataxia is obvious” value [12] is listed as 30000 ng/mL, the “plasma level at which lethargy is apparent” value [12] is listed as “about 40 mcg/ml” and the “plasma level at which nystagmus is seen” value [12] is listed as “around 20 mcg/ml”. For the same molecule, the “plasma level controlling seizures” value [12] was no less than 10 µg/mL.
Work on `CCCC(CCC)C(=O)O` [Valproic Acid, reference compound] yielded an ED50 ([4]; ip) of 149 mg/kg and an LD50 [9] of 1100 mg/kg.
